US8703979B2, “Preparation of anticancer-active tricyclic compounds via alkyne coupling reaction” (Taheebo Japan Co., Ltd., priority 2010, dated 2014)

## CC(O)c1cc2c(s1)C(=O)c1cccc(O)c1C2=O (stereo not shown) [Example 20, 2-(1-hydroxyethyl)-5-hydroxynaphtho[2,3-b]thiophene-4,9-dione]
  melting point: > 193 °C (dec.)
